The values that follow come from patent US10273237B2, “Imidazopyridazine compounds useful as modulators of IL-12, IL-23 and/or IFN-α responses” (BRISTOL-MYERS SQUIBB COMPANY, priority 2013, dated 2019).

The test system of assay [1] is IL-23-stimulated Kit225 T cells with STAT-dependent luciferase reporter. Description: Kit225 T cell assay, STAT-dependent luciferase reporter, IL-23 stimulated. Type of assay: cell-based, human. As to conditions: read-out: IL-23 Kit225 Reporter, LE (IC50). The procedure: (§1) Kit225 T cells with a stably-integrated STAT-dependent luciferase reporter were plated in RPMI (GIBCO) containing 10% heat-inactivated FBS (GIBCO) and 100 U/mL PenStrep (GIBCO). The cells were then stimulated with either 20 ng/mL human recombinant IL-23 or 200 U/mL human recombinant IFNα (PBL InterferonSource) for 5-6 hours. Luciferase expression was measured using the STEADY-GLO® Luciferase Assay System (PROMEGA®) according to the manufacturer's instructions.
For orientation: Reporter assays use an easily measured gene product as a stand-in for the process of interest.

The test system of assay [2] is IFNα-stimulated Kit225 T cells with STAT-dependent luciferase reporter. Nature of the assay: Kit225 T cell assay, STAT-dependent luciferase reporter, IFNα stimulated. The class given is cell-based, human. As to conditions: 5-6 hours, read-out: IFNa Kit225 Reporter, LE (IC50). The procedure:
as §1

Where [3] appears, read: Homo sapiens, KIT225, 20 ng/mL human recombinant IL-23, 5-6 hours.
Setting [4] is: Homo sapiens, KIT225, 200 U/mL human recombinant IFNα.
The mark [5] stands for this setting: 20 ng/mL human recombinant IL-23, 5-6 hours.
Setting [6] is: 200 U/mL human recombinant IFNα.

Like-named read-outs stand apart in the source and are kept apart here.

Consider `CNc1cc(Nc2cccn(-c3cncc(C#N)n3)c2=O)nn2c(C(=O)NCC(C)(C)CO)cnc12` [compound 258], for which the values for the IC50 in assay [1] (setting [3]) and in assay [2] (setting [4]) were 1.22 µM and 0.59 µM, respectively.

`CCNC(=O)c1cnc2c(NC)cc(Nc3cccn(-c4ccccn4)c3=O)nn12` [Example 66]: the IC50 (usually the midpoint of a concentration-inhibition curve) in assay [1] (setting [5]) stood at 0.09 µM; in assay [2] (setting [6]) it was 0.18 µM.

With `CNc1cc(Nc2cccn(-c3ccccc3)c2=O)nn2c(C(=O)NC3CCCC3O)cnc12` (centres unmarked) [Example 189], the IC50 in assay [1] (setting [5]) was determined as 0.23 µM; in assay [2] (setting [6]), 0.19 µM.

As for `CNc1cc(Nc2cccn(C)c2=O)nn2c(C(=O)NC(C)(C)C#N)cnc12` [Example 130], the values for the IC50 in assay [1] (setting [5]) and in assay [2] (setting [6]) were 0.64 µM and 0.31 µM, respectively.

Regarding `CNc1cc(Nc2cncn(-c3cccc(C(C)O)n3)c2=O)nn2c(C(=O)NC3CCC3)cnc12` (racemic) [Example 87], the IC50 turned out to be 0.22 µM in assay [1] (setting [5]) and 0.16 µM in assay [2] (setting [6]).

On to `CNc1cc(Nc2cccn(-c3ncccn3)c2=O)nn2c(C(=O)NC3CCC3)cnc12` [Example 52], for which the IC50 in assay [1] (setting [5]) was found to be 0.21 µM; in assay [2] (setting [6]), 0.13 µM.

As to `CNc1cc(Nc2cccn(-c3ccc(CO)cn3)c2=O)nn2c(C(=O)NC3CC3)cnc12` [compound 253], the values for the IC50 in assay [1] (setting [3]) and in assay [2] (setting [4]) were 0.18 µM and 0.45 µM, respectively.

On to `CNc1cc(Nc2cccn(-c3cnn(C)c3)c2=O)nn2c(C(=O)NC3CC3)cnc12` [Example 203], for which the IC50 in assay [1] (setting [5]) is 0.19 µM; in assay [2] (setting [6]), 0.2 µM.

For `CNc1cc(Nc2cccn(C(C)C)c2=O)nn2c(C(=O)NCC(C)(C)CO)cnc12` [Example 217], the IC50 stood at 0.09 µM in assay [1] (setting [5]) and 0.1 µM in assay [2] (setting [6]).

Consider `CNc1cc(Nc2cccn(-c3cnc(C)cn3)c2=O)nn2c(C(=O)N[C@@H]3C[C@@H]3F)cnc12` [Example 103], for which the IC50 in assay [1] (setting [5]) turned out to be 0.06 µM; in assay [2] (setting [6]), 0.02 µM.

In the case of `CNc1cc(Nc2cccn(-c3cnc(C(C)(C)O)cn3)c2=O)nn2c(C(=O)N[C@@H]3C[C@@H]3F)cnc12` [Example 255, N-((1R,2S)-2-Fluorocyclopropyl)-6-((1-(5-(2-hydroxypropan-2-yl)pyrazin-2-yl)-2-oxo-1,2-dihydropyridin-3-yl)amino)-8-(methylamino)imidazo[1,2-b]pyridazine-3-carboxamide], the IC50 in assay [1] (setting [3]) came out at 0.0308 µM; in assay [2] (setting [4]), 0.028 µM.

In the case of `CCc1ccc(-n2cccc(Nc3cc(NC)c4ncc(C(=O)N[C@@H]5C[C@@H]5F)n4n3)c2=O)nn1` [Example 181], the results for the IC50 in assay [1] (setting [5]) and in assay [2] (setting [6]) were 0.29 µM and 0.35 µM, respectively.

In the case of `CNc1cc(Nc2cccn(C3CCN(C(=O)C4CCCO4)CC3)c2=O)nn2c(C(=O)NC3CC3)cnc12` (centres unmarked) [Example 247], the IC50 in assay [1] (setting [3]) came to 0.42 µM; in assay [2] (setting [4]), 0.35 µM.

On to `CNc1cc(Nc2cccn(-c3ccc(F)nc3)c2=O)nn2c(C(=O)NC3CC3)cnc12` [Example 17], for which the IC50 in assay [1] (setting [5]) amounted to 0.24 µM; in assay [2] (setting [6]), 0.18 µM.

As for `CNc1cc(Nc2cccn(-c3ccc(C#N)cc3)c2=O)nn2c(C(=O)NC3CC3)cnc12` [Example 2, 6-((1-(4-Cyanophenyl)-2-oxo-1,2-dihydropyridin-3-yl)amino)-N-cyclopropyl-8-(methylamino)imidazo[1,2-b]pyridazine-3-carboxamide], the IC50 in assay [1] (setting [3]) is 0.16 µM; in assay [2] (setting [4]), 0.09 µM.

In the case of `CNc1cc(Nc2cccn(C(C)(C)C)c2=O)nn2c(C(=O)NC3(C#N)CC3)cnc12` [Example 219], the IC50 in assay [1] (setting [5]) turned out to be 0.25 µM; in assay [2] (setting [6]) it was 0.07 µM.

Regarding `CNc1cc(Nc2cccn(-c3ccc(F)cn3)c2=O)nn2c(C(=O)NC3CC3)cnc12` [Example 36], the IC50 in assay [1] (setting [5]) and in assay [2] (setting [6]) was 0.1 µM throughout.

With `CC(C)(CO)CNC(=O)c1cnc2c3c(c(Nc4cccn(-c5ccccn5)c4=O)nn12)OCCN3` [Example 242], the IC50 in assay [1] (setting [3]) came to 0.17 µM; in assay [2] (setting [4]), 0.36 µM.

Regarding `CNc1cc(Nc2cccn(-c3cccc(F)n3)c2=O)nn2c(C(=O)NC3CC3)cnc12` [Example 144], the IC50 in assay [1] (setting [5]) came out at 0.14 µM; in assay [2] (setting [6]), 0.08 µM.
